{"source": "EPA's CvTdb concentration-time database", "assay_in_all_cases": "concentration in plasma after dosing", "key": {"Rat [1]": {"system": "Rat", "details": "14 min; dosed: Glyoxylic acid monohydrate; 50 mg/kg; iv; Male; Harlan Sprague Dawley"}, "Rat [2]": {"system": "Rat", "details": "dosed: Glyoxylic acid monohydrate, 50 mg/kg, iv, Female, Harlan Sprague Dawley"}, "Rat [3]": {"system": "Rat", "details": "dosed: Glyoxylic acid monohydrate, 50 mg/kg, iv, Female, Harlan Sprague Dawley", "remark": "listed apart in the source"}, "Rat [4]": {"system": "Rat", "details": "dosed: Glyoxylic acid monohydrate, 50 mg/kg, iv, Male, Harlan Sprague Dawley"}, "Rat [5]": {"system": "Rat", "details": "dosed: Glyoxylic acid monohydrate, 50 mg/kg, iv, Female, Harlan Sprague Dawley", "remark": "listed apart in the source"}, "Rat [6]": {"system": "Rat", "details": "dosed: Glyoxylic acid monohydrate, 50 mg/kg, iv, Female, Harlan Sprague Dawley", "remark": "listed apart in the source"}, "Rat [7]": {"system": "Rat", "details": "dosed: Glyoxylic acid monohydrate, 50 mg/kg, iv, Female, Harlan Sprague Dawley", "remark": "listed apart in the source"}, "Rat [8]": {"system": "Rat", "details": "11 min; dosed: Glyoxylic acid monohydrate; 50 mg/kg; iv; Female; Harlan Sprague Dawley"}, "Rat [9]": {"system": "Rat", "details": "dosed: Glyoxylic acid monohydrate, 50 mg/kg, iv, Male, Harlan Sprague Dawley", "remark": "listed apart in the source"}, "Rat [10]": {"system": "Rat", "details": "14 min; dosed: Glyoxylic acid monohydrate; 50 mg/kg; iv; Female; Harlan Sprague Dawley"}, "Rat [11]": {"system": "Rat", "details": "dosed: Glyoxylic acid monohydrate, 50 mg/kg, iv, Female, Harlan Sprague Dawley", "remark": "listed apart in the source"}, "Rat [12]": {"system": "Rat", "details": "11 min; dosed: Glyoxylic acid monohydrate; 50 mg/kg; iv; Female; Harlan Sprague Dawley", "remark": "listed apart in the source"}, "Rat [13]": {"system": "Rat", "details": "dosed: Glyoxylic acid monohydrate, 50 mg/kg, iv, Female, Harlan Sprague Dawley", "remark": "listed apart in the source"}, "Rat [14]": {"system": "Rat", "details": "dosed: Glyoxylic acid monohydrate, 50 mg/kg, iv, Harlan Sprague Dawley"}, "Rat [15]": {"system": "Rat", "details": "dosed: Glyoxylic acid monohydrate, 50 mg/kg, iv, Female, Harlan Sprague Dawley", "remark": "listed apart in the source"}, "Rat [16]": {"system": "Rat", "details": "dosed: Glyoxylic acid monohydrate, 50 mg/kg, iv, Female, Harlan Sprague Dawley", "remark": "listed apart in the source"}, "Rat [17]": {"system": "Rat", "details": "dosed: Glyoxylic acid monohydrate, 50 mg/kg, iv, Male, Harlan Sprague Dawley", "remark": "listed apart in the source"}, "Rat [18]": {"system": "Rat", "details": "dosed: Glyoxylic acid monohydrate, 50 mg/kg, iv, Female, Harlan Sprague Dawley", "remark": "listed apart in the source"}, "Rat [19]": {"system": "Rat", "details": "dosed: Glyoxylic acid monohydrate, 50 mg/kg, iv, Female, Harlan Sprague Dawley", "remark": "listed apart in the source"}, "Rat [20]": {"system": "Rat", "details": "dosed: Glyoxylic acid monohydrate, 50 mg/kg, iv, Female, Harlan Sprague Dawley", "remark": "listed apart in the source"}}}
{"molecule": "O.O=CC(=O)O", "note": "[Glyoxylic acid monohydrate]", "values": [{"measurement": "concentration in plasma", "setting": "Rat [1]", "value": 7680, "unit": "ng/mL"}, {"measurement": "concentration in plasma", "setting": "Rat [2]; 8 min", "value": 15800, "unit": "ng/mL"}, {"measurement": "concentration in plasma", "setting": "Rat [2]; 0.5 h", "value": 2850, "unit": "ng/mL"}, {"measurement": "concentration in plasma", "setting": "Rat [3]; 5 min", "value": 26200, "unit": "ng/mL"}, {"measurement": "concentration in plasma", "setting": "Rat [3]; 0.3 h", "value": 5270, "unit": "ng/mL"}, {"measurement": "concentration in plasma", "setting": "Rat [4]; 2 min", "value": 92900, "unit": "ng/mL"}, {"measurement": "concentration in plasma", "setting": "Rat [4]; 0.3 h", "value": 5910, "unit": "ng/mL"}, {"measurement": "concentration in plasma", "setting": "Rat [5]; 5 min", "value": 27700, "unit": "ng/mL"}, {"measurement": "concentration in plasma", "setting": "Rat [5]; 22 min", "value": 3860, "unit": "ng/mL"}, {"measurement": "concentration in plasma", "setting": "Rat [6]; 5 min", "value": 28600, "unit": "ng/mL"}, {"measurement": "concentration in plasma", "setting": "Rat [6]; 22 min", "value": 3840, "unit": "ng/mL"}, {"measurement": "concentration in plasma", "setting": "Rat [7]; 8 min", "value": 17400, "unit": "ng/mL"}, {"measurement": "concentration in plasma", "setting": "Rat [7]; 22 min", "value": 4560, "unit": "ng/mL"}, {"measurement": "concentration in plasma", "setting": "Rat [8]", "value": 11600, "unit": "ng/mL"}, {"measurement": "concentration in plasma", "setting": "Rat [9]; 5 min", "value": 34200, "unit": "ng/mL"}, {"measurement": "concentration in plasma", "setting": "Rat [9]; 0.3 h", "value": 6320, "unit": "ng/mL"}, {"measurement": "concentration in plasma", "setting": "Rat [10]", "value": 8370, "unit": "ng/mL"}, {"measurement": "concentration in plasma", "setting": "Rat [11]; 8 min", "value": 14700, "unit": "ng/mL"}, {"measurement": "concentration in plasma", "setting": "Rat [11]; 0.5 h", "value": 3360, "unit": "ng/mL"}, {"measurement": "concentration in plasma", "setting": "Rat [12]", "value": 9560, "unit": "ng/mL"}, {"measurement": "concentration in plasma", "setting": "Rat [13]; 11 min", "value": 10700, "unit": "ng/mL"}, {"measurement": "concentration in plasma", "setting": "Rat [13]; 0.5 h", "value": 2690, "unit": "ng/mL"}, {"measurement": "concentration in plasma", "setting": "Rat [14]; 2 min, Female", "value": 102000, "unit": "ng/mL"}, {"measurement": "concentration in plasma", "setting": "Rat [14]; 2 min, Male", "value": 63200, "unit": "ng/mL"}, {"measurement": "concentration in plasma", "setting": "Rat [14]; 5 min, Female", "value": 24000, "unit": "ng/mL"}, {"measurement": "concentration in plasma", "setting": "Rat [14]; 5 min, Male", "value": 29800, "unit": "ng/mL"}, {"measurement": "concentration in plasma", "setting": "Rat [14]; 8 min, Female", "value": 10100, "unit": "ng/mL"}, {"measurement": "concentration in plasma", "setting": "Rat [14]; 11 min, Female", "value": 11300, "unit": "ng/mL"}, {"measurement": "concentration in plasma", "setting": "Rat [14]; 11 min, Male", "value": 9000, "unit": "ng/mL"}, {"measurement": "concentration in plasma", "setting": "Rat [14]; 14 min, Female", "value": 8040, "unit": "ng/mL"}, {"measurement": "concentration in plasma", "setting": "Rat [14]; 14 min, Male", "value": 8390, "unit": "ng/mL"}, {"measurement": "concentration in plasma", "setting": "Rat [14]; 0.3 h, Female", "value": 4380, "unit": "ng/mL"}, {"measurement": "concentration in plasma", "setting": "Rat [14]; 0.3 h, Male", "value": 4850, "unit": "ng/mL"}, {"measurement": "concentration in plasma", "setting": "Rat [14]; 22 min, Female", "value": 3600, "unit": "ng/mL"}, {"measurement": "concentration in plasma", "setting": "Rat [14]; 22 min, Male", "value": 4090, "unit": "ng/mL"}, {"measurement": "concentration in plasma", "setting": "Rat [15]; 8 min", "value": 15800, "unit": "ng/mL"}, {"measurement": "concentration in plasma", "setting": "Rat [15]; 22 min", "value": 3900, "unit": "ng/mL"}, {"measurement": "concentration in plasma", "setting": "Rat [16]; 8 min", "value": 16900, "unit": "ng/mL"}, {"measurement": "concentration in plasma", "setting": "Rat [16]; 0.5 h", "value": 2820, "unit": "ng/mL"}, {"measurement": "concentration in plasma", "setting": "Rat [17]; 2 min", "value": 66100, "unit": "ng/mL"}, {"measurement": "concentration in plasma", "setting": "Rat [17]; 14 min", "value": 5250, "unit": "ng/mL"}, {"measurement": "concentration in plasma", "setting": "Rat [18]; 2 min", "value": 99000, "unit": "ng/mL"}, {"measurement": "concentration in plasma", "setting": "Rat [18]; 14 min", "value": 6240, "unit": "ng/mL"}, {"measurement": "concentration in plasma", "setting": "Rat [19]; 2 min", "value": 70100, "unit": "ng/mL"}, {"measurement": "concentration in plasma", "setting": "Rat [19]; 0.3 h", "value": 3380, "unit": "ng/mL"}, {"measurement": "concentration in plasma", "setting": "Rat [20]; 11 min", "value": 12000, "unit": "ng/mL"}, {"measurement": "concentration in plasma", "setting": "Rat [20]; 0.5 h", "value": 3380, "unit": "ng/mL"}]}
